Among the data in patent US7560470B2, “Heterocyclyl-3-sulfonylindazoles as 5-hydroxytryptamine-6 ligands” (Wyeth, priority 2003, dated 2009) are Ki, inhibition and melting point values, retold here.

Structures can show the parent of a compound that is named as a salt.

T1 sequence (P50406 whole entry): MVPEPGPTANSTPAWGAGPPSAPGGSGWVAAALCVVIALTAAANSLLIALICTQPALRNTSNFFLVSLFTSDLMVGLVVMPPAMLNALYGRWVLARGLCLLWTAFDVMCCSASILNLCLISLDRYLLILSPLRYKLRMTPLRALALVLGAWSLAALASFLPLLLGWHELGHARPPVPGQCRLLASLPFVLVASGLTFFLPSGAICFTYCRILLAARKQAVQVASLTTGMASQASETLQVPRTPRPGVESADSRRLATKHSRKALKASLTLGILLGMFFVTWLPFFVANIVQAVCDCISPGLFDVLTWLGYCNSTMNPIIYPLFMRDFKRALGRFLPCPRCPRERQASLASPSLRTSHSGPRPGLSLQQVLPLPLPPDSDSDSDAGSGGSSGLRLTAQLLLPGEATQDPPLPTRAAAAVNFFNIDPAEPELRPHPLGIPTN

One series concerns the target T1, human cloned 5-HT6 receptors (Homo sapiens, UniProt P50406).
T1 construct: expressed in transfected cells; host or cells: HeLa cells (membrane preparation)
The series can be described thus: 5-HT6 binding affinity, [3H]-LSD displacement on membranes of Hela cells expressing human cloned 5-HT6 receptors. Particulars: 5-HT6 Binding Ki, [3H]-LSD 3.0 nM, Hela cell membranes, 120 min at room temperature. As for the experimental part: The affinity of test compounds for the serotonin 5-HT6 receptor is evaluated in the following manner. Cultured Hela cells expressing human cloned 5-HT6 receptors are harvested and centrifuged at low speed (1,000×g) for 10.0 min to remove the culture media. The harvested cells are suspended in half volume of fresh physiological phosphate buffered saline solution and recentrifuged at the same speed. This operation is repeated. The collected cells are then homogenized in ten volumes of 50 mM Tris.HCl (pH 7.4) and 0.5 mM EDTA. The homogenate is centrifuged at 40,000×g for 30.0 min and the precipitate is collected. The obtained pellet is resuspended in 10 volumes of Tris.HCl buffer and recentrifuged at the same speed. The final pellet is suspended in a small volume of Tris.HCl buffer and the tissue protein content is determined in aliquots of 10-25 μl volumes. Bovine Serum Albumin is used as the standard in the protein determination according to the method described in Lowry et al., J. Biol. Chem., 193:265 (1951). The volume of the suspended cell membranes is adjusted to give a tissue protein concentration of 1.0 mg/ml of suspension. The prepared membrane suspension (10 times concentrated) is aliquoted in 1.0 ml volumes and stored at −70° C. until used in subsequent binding experiments.
Binding experiments are performed in a 96 well microtiter plate format, in a total volume of 200 μl. […] The test compounds are added in 20.0 μl volume.
The reaction is allowed to proceed in the dark for 120 min at room temperature, at which time, the bound ligand-receptor complex is filtered off on a 96 well unifilter with a Packard Filtermate® 196 Harvester. The bound complex caught on the filter disk is allowed to air dry and the radioactivity is measured in a Packard TopCount® equipped with six photomultiplier detectors, after the addition of 40.0 μl Microscint®−20 scintillant to each shallow well. The unifilter plate is heat-sealed and counted in a PackardTopCount® with a tritium efficiency of 31.0%.
Binding in the presence of varying concentrations of test compound is expressed as a percentage of specific binding in the absence of test compound. The results are plotted as log % bound versus log concentration of test compound. Nonlinear regression analysis of data points with a computer assisted program Prisms® yields both the IC50 and the Ki values of test compounds with 95% confidence limits.
The amount of displacement by the test compound is given in percent (%) inhibition and is derived from the following equation:
[formula] where B0 is the amount of CPM bound in the presence of the testing agent. NSB represents the CPM bound in the presence of a saturating concentration of a displacer and TB represents the total amount of CPM bound at zero (0) concentration of test compound.
Alternatively, a linear regression line of data points is plotted, from which the IC50 value is determined and the Ki value is determined based upon the following equation: Ki=IC50/(1+L/KD) where L is the concentration of the radioactive ligand used and KD is the dissociation constant of the ligand for the receptor, both expressed in nM.
For `CCCCn1nc(S(=O)(=O)c2cccc3ccccc23)c2cc(N3CCN(C)CC3)ccc21` [Example 48], the Ki turned out to be 4 nM.

Compound `CN1CCN(c2ccc3[nH]nc(S(=O)(=O)c4cccs4)c3c2)CC1` [Example 54] registered an inhibition constant (Ki) of 8 nM.

The series is the same for the next values; noted with them: [3H]-LSD 3.0 nM, Hela cell membranes, 120 min at room temperature; read-out: 5-HT6 Binding Ki.
For `O=S(=O)(c1ccccc1)c1n[nH]c2ccc(N3CCN(Cc4ccccc4)CC3)cc12` [Example 4, 5-(4-Benzylpiperazin-1-yl)-3-(phenylsulfonyl)-1H-indazole hydrochloride], the inhibition constant (Ki) was found to be 86 nM.

In the case of `COc1cc2[nH]nc(S(=O)(=O)c3ccccc3)c2cc1N1CCN(Cc2ccccc2)CC1` [Example 7, 5-(4-Benzylpiperazin-1-yl)-6-methoxy-3-(phenylsulfonyl)-1H-indazole hydrochloride], the Ki worked out at 113 nM.

For the compound `COc1cc2c(cc1N1CCN(Cc3ccccc3)CC1)c(S(=O)(=O)c1ccccc1)nn2-c1ccccc1` [Example 8, 5-(4-Benzylpiperazin-1-yl)-6-methoxy-1-phenyl-3-(phenylsulfonyl)-1H-indazole hydrochloride], the Ki is 399 nM.

Take `COc1cc2c(cc1N1CCNCC1)c(S(=O)(=O)c1ccccc1)nn2-c1ccccc1` [Example 9, 6-Methoxy-1-phenyl 3-(phenylsulfonyl)-5-piperazin-1-yl-1H-indazole hydrochloride]: the Ki came to 97 nM.

As for `COc1cc2c(cc1N1CCNCC1)c(S(=O)(=O)c1ccccc1)nn2-c1ccc(C(F)(F)F)cc1` [Example 10, 6-Methoxy-3-(phenylsulfonyl)-5-(piperazin-1-yl)-1-[4-(trifluoromethyl)phenyl]-1H-indazole hydrochloride], the Ki is 224 nM.

For the compound `CCn1nc(S(=O)(=O)c2ccccc2)c2cc(N3CCN(Cc4ccccc4)CC3)ccc21` [Example 12, 5-(4-Benzylpiperazin-1-yl)-1-ethyl-3-(phenylsulfonyl)-1H-indazole dihydrochloride], the Ki was 64 nM.

Regarding `CN1CCN(c2ccc3[nH]nc(S(=O)(=O)c4cccc5ccccc45)c3c2)CC1` [Example 14], the inhibition constant Ki came to 1 nM.

As for `CN1CCN(c2ccc3[nH]nc(S(=O)(=O)c4ccc(Cl)s4)c3c2)CC1` [Example 15], the inhibitory constant (Ki) is 2 nM.

For the compound `CN1CCN(c2ccc3[nH]nc(S(=O)(=O)c4ccc(Br)cc4)c3c2)CC1` [Example 17], the inhibition constant (Ki) came to 7 nM.

Regarding `CN1CCN(c2ccc3[nH]nc(S(=O)(=O)c4ccccc4F)c3c2)CC1` [Example 18], the Ki was 6 nM.

`CN1CCN(c2ccc3[nH]nc(S(=O)(=O)c4cccc(F)c4)c3c2)CC1` [Example 19]: the inhibition constant (Ki) stood at 2 nM.

Turning to `O=S(=O)(c1ccccc1)c1nn(-c2cccc(C(F)(F)F)c2)c2ccc(N3CCN(Cc4ccccc4)CC3)cc12` [Example 28], the Ki was 136 nM.

As for `O=S(=O)(c1ccccc1)c1nn(CCc2ccccc2)c2ccc(N3CCNCC3)cc12` [Example 31], the inhibition constant Ki turned out to be 3 nM.

For the compound `O=S(=O)(c1ccccc1)c1nn(-c2ccc(C(F)(F)F)cc2)c2ccc(N3CCNCC3)cc12` [Example 33], the Ki is 19 nM.

`COc1cccc(-n2nc(S(=O)(=O)c3ccccc3)c3cc(N4CCNCC4)ccc32)c1` [Example 36]: the Ki was determined as 20 nM.

For the compound `CCCn1nc(S(=O)(=O)c2cccc3ccccc23)c2cc(N3CCN(C)CC3)ccc21` [Example 45], the Ki turned out to be 2 nM.

As to `CN1CCN(c2ccc3c(c2)c(S(=O)(=O)c2cccc4ccccc24)nn3C)CC1` [Example 47], the Ki was found to be 2 nM.

For `CN1CCN(c2ccc3c(c2)c(S(=O)(=O)c2cccc4ccccc24)nn3Cc2cccc(Cl)c2)CC1` [Example 49], the Ki worked out at 6 nM.

For `CC(C)n1nc(S(=O)(=O)c2cccc3ccccc23)c2cc(N3CCN(C)CC3)ccc21` [Example 50], the inhibitory constant (Ki) turned out to be 2 nM.

Turning to `CC(C)Cn1nc(S(=O)(=O)c2cccc3ccccc23)c2cc(N3CCN(C)CC3)ccc21` [Example 51], the Ki was 1 nM.

For `CN1CCN(c2ccc3c(c2)c(S(=O)(=O)c2cccc4ccccc24)nn3Cc2ccccc2)CC1` [Example 52], the Ki was found to be 2 nM.

With `O=S(=O)(c1cccc2ccccc12)c1n[nH]c2ccc(N3CCNCC3)cc12` [Example 53], the inhibition constant (Ki) was determined as 1 nM.

In the case of `Cc1ccc(S(=O)(=O)c2n[nH]c3ccc(N4CCN(C)CC4)cc23)cc1` [Example 56], the Ki was 5 nM.

Regarding `CN1CCN(c2ccc3[nH]nc(S(=O)(=O)c4ccccc4F)c3c2)CC1` [Example 58], the inhibition constant (Ki) was determined as 3 nM.

On to `CN1CCN(c2ccc3[nH]nc(S(=O)(=O)c4ccc(F)cc4)c3c2)CC1` [Example 60], for which the inhibition constant Ki turned out to be 5 nM.

Consider `COc1cccc(S(=O)(=O)c2n[nH]c3ccc(N4CCN(C)CC4)cc23)c1` [Example 63], for which the Ki is 1 nM.

In the case of `COc1ccc(S(=O)(=O)c2n[nH]c3ccc(N4CCN(C)CC4)cc23)cc1` [Example 64], the inhibition constant Ki came out at 12 nM.

On to `CN1CCN(c2ccc3[nH]nc(S(=O)(=O)c4ccccc4Cl)c3c2)CC1` [Example 65], for which the Ki stood at 4 nM.

With `CN1CCN(c2ccc3[nH]nc(S(=O)(=O)c4ccc(Cl)cc4)c3c2)CC1` [Example 67], the inhibition constant (Ki) worked out at 8 nM.

Regarding `CN1CCN(c2ccc3[nH]nc(S(=O)(=O)c4ccc(F)cc4F)c3c2)CC1` [Example 68], the inhibition constant (Ki) came out at 14 nM.

As to `CN1CCN(c2ccc3[nH]nc(S(=O)(=O)c4ccc(Cl)s4)c3c2)CC1` [Example 70], the inhibition constant (Ki) turned out to be 3 nM.

As for `CC(C)c1ccc(S(=O)(=O)c2n[nH]c3ccc(N4CCN(C)CC4)cc23)cc1` [Example 71], the Ki was found to be 4 nM.

As for `CN1CCN(c2ccc3[nH]nc(S(=O)(=O)c4ccc5ccccc5c4)c3c2)CC1` [Example 72], the Ki came out at 2 nM.

For the compound `CCCCc1ccc(S(=O)(=O)c2n[nH]c3ccc(N4CCN(C)CC4)cc23)cc1` [Example 74], the Ki amounted to 26 nM.

As for `COc1ccc(Cl)cc1S(=O)(=O)c1n[nH]c2ccc(N3CCN(C)CC3)cc12` [Example 77], the inhibition constant (Ki) is 2 nM.

`CN1CCN(c2ccc3[nH]nc(S(=O)(=O)c4ccc(S(C)(=O)=O)cc4)c3c2)CC1` [Example 80]: the Ki came to 62 nM.

Consider `CN1CCN(c2ccc3[nH]nc(S(=O)(=O)c4ccccc4Br)c3c2)CC1` [Example 89], for which the Ki came to 10 nM.

`CN1CCN(c2ccc3[nH]nc(S(=O)(=O)c4c(Cl)cccc4Cl)c3c2)CC1` [Example 91]: the inhibitory constant (Ki) turned out to be 6 nM.

With `CN1CCN(c2cc(Cl)cc3c(S(=O)(=O)c4ccc(F)cc4)n[nH]c23)CC1` [Example 97, 5-Chloro-3[(4-fluorophenyl)sulfonyl]-7-(4-methylpiperazin-1-yl)-1H-indazole], the Ki amounted to 12 nM.

Take `CC(C)c1ccc(S(=O)(=O)c2n[nH]c3c(N4CCN(C)CC4)cc(Cl)cc23)cc1` [Example 98]: the Ki came out at 22 nM.

Take `CN1CCN(c2cc(Cl)cc3c(S(=O)(=O)c4cccc(C(F)(F)F)c4)n[nH]c23)CC1` [Example 99]: the inhibitory constant (Ki) was 20 nM.

Take `CN1CCN(c2cc(Cl)cc3c(S(=O)(=O)c4cccc5ccccc45)n[nH]c23)CC1` [Example 100]: the Ki is 5 nM.

Consider `CN1CCN(c2cccc3c(S(=O)(=O)c4cccc5ccccc45)n[nH]c23)CC1` [Example 101], for which the Ki was determined as 5 nM.

Still in this series, the particulars now being: test compound at 1 μM; displacement of [3H]-LSD.
For `O=S(=O)(c1cccc(F)c1)c1n[nH]c2ccc(N3CCN(Cc4ccccc4)CC3)cc12` [Example 5, 5-(4-Benzylpiperazin-1-yl)-3-[(3-fluorophenyl)sulfonyl]-1H-indazole hydrochloride], the inhibition at 1 µM was 53%.

With `Cn1nc(S(=O)(=O)c2ccccc2)c2cc(N3CCN(Cc4ccccc4)CC3)ccc21` [Example 11, 5-(4-Benzylpiperazin-1-yl)-1-methyl-3-(phenylsulfonyl)-1H-indazole], the inhibition at 1 µM turned out to be 67%.

Test system in another series: not given
Assay: not given
Details: not given
`CN1CCN(c2ccc3[nH]nc(S(=O)(=O)c4ccc(Cl)s4)c3c2)CC1` [Example 15]: the melting point was more than 250 °C.

Take `CN1CCN(c2ccc3[nH]nc(S(=O)(=O)c4ccc(Br)cc4)c3c2)CC1` [Example 17]: the melting point is more than 250 °C.

`CN1CCN(c2ccc3[nH]nc(S(=O)(=O)c4ccccc4F)c3c2)CC1` [Example 18] came in with a melting point of 160 to 161 °C.

Consider `CN1CCN(c2ccc3[nH]nc(S(=O)(=O)c4cccc(F)c4)c3c2)CC1` [Example 19], for which the melting point was more than 250 °C.

Compound `O=S(=O)(c1ccccc1)c1nn(-c2cccc(C(F)(F)F)c2)c2ccc(N3CCN(Cc4ccccc4)CC3)cc12` [Example 28] displayed a melting point of 146 to 150 °C.

Turning to `O=S(=O)(c1ccccc1)c1nn(CCc2ccccc2)c2ccc(N3CCNCC3)cc12` [Example 31], the melting point was in the range of 127 to 130 °C.

`O=S(=O)(c1ccccc1)c1nn(-c2ccc(C(F)(F)F)cc2)c2ccc(N3CCNCC3)cc12` [Example 33]: the melting point is 170 to 172 °C.

`COc1cccc(-n2nc(S(=O)(=O)c3ccccc3)c3cc(N4CCNCC4)ccc32)c1` [Example 36]: the melting point was in the range of 132 to 135 °C.
